Assay [1] concerns gingival epithelial cells (GEC). Nature of the assay: Topical application of vitamin D to gingival epithelial cells, LL-37 expression. The assay is classed as cell-based.
The test system of a further assay is CAP-18 (LL-37). Nature of the assay: Relative gene expression by qPCR (LL-37 probe) in oral tissue model after treatment with toothpaste slurry. The format is cell-based, human. The conditions noted are these: fresh toothpaste slurry 1:3 in water, 2 minutes treatment, overnight incubation, normalized with GAPDH. The procedure:
(§1) A toothpaste slurry was prepared by diluting the toothpaste formulation of Table 1 with deionized water in a 1:3 ratio. The slurry was applied on top of tissues that modeled the human oral cavity. After 2 minutes of the treatment, the tissues were rinsed with PBS twice or three times. Medium in wells was replaced with fresh medium and incubated in a cell culture incubator for overnight. Tissues were harvested and processed for RNA isolation and c-DNA preparation. Two probes were used for qPCR; CAP-18 (LL-37) and Cyp24A1. Relative levels of expressions were assessed after normalization with GAPDH (internal control).
(§2) The data is consistent for both LL-37 and Cyp24A1.
For orientation: In qPCR the cycle at which signal appears reflects the starting amount.

For the next assay, the system named is Cyp24A1. Nature of the assay: Relative gene expression by qPCR (Cyp24A1 probe) in oral tissue model after treatment with toothpaste slurry. The format is cell-based, human. Conditions: fresh toothpaste slurry 1:3 in water, 2 minutes treatment, overnight incubation, normalized with GAPDH. The procedure: as §1, §2

SMILES strings stand for the structures.

As to `C=C1/C(=C\C=C2/CCC[C@]3(C)[C@@H]([C@H](C)CCCC(C)(C)O)CC[C@@H]23)C[C@@H](O)C[C@@H]1O` [1,25(OH)2D3, 1,25-dihydroxycholecalciferol], the “expression of anti-microbial peptide (LL-37) proteins” value in assay [1] is given as “induces enhanced expression”.
Take `C=C1CC[C@H](O)C/C1=C/C=C1\CCC[C@]2(C)[C@@H]([C@H](C)CCCC(C)C)CC[C@@H]12` [Neat Active, cholecalciferol]: the “Relative Gene Expression after Treatment, LL-37, Mean” value in the assay on CAP-18 (LL-37) came out at 2.0. Further, the “Relative Gene Expression after Treatment, Cyp24A1, Mean” value with Cyp24A1 came out at 4.3.

Values taken from patent publication US20220313587A1, “Oral Care Compositions” (Colgate-Palmolive Company, priority 2019, published 2022).
